According to ChEMBL document CHEMBL1136598, “Design, synthesis, and structure-activity relationships of unsubstituted piperazinone-based transition state factor Xa inhibitors” (Bioorg Med Chem Lett, 2003):
The source made the active and inactive calls. The calls are words filed in the database; no cut-off is given here.

How the values were obtained:
Coagulation factor X [1] = biological target: T1, Coagulation factor X (Homo sapiens, UniProt P00742); assay: (§1) In vitro binding affinity towards factor Xa
T1 sequence (P00742 41-179 limits assumed): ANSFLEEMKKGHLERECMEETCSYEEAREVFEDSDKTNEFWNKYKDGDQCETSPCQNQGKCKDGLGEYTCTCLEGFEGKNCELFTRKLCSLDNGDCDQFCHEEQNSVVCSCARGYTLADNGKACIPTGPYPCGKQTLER
T1 sequence (P00742 235-488 limits assumed): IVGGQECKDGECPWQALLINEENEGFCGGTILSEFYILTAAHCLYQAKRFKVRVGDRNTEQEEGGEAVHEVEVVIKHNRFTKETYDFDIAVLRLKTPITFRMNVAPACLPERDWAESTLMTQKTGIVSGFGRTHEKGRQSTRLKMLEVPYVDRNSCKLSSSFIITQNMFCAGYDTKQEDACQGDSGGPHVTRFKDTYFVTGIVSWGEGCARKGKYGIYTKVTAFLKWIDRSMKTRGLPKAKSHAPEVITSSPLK

[2] = In vivo half life period after intravenous administration in rat; assay type: ADME, organism-based
Prothrombin = Prothrombin (Homo sapiens, UniProt P00734); assay: In vitro inhibitory activity against serine protease thrombin
[3] = biological target: Vitamin K-dependent protein C (Homo sapiens, UniProt P04070); assay: Inhibitory activity against activated protein C (aPC)
Chain of Vitamin K-dependent protein C (P04070 43-197 limits assumed): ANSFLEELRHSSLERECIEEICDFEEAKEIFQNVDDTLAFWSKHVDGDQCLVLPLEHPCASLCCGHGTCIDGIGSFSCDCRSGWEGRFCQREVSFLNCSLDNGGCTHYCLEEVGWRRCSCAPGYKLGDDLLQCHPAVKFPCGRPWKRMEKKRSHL
Chain of Vitamin K-dependent protein C (P04070 212-461 limits assumed): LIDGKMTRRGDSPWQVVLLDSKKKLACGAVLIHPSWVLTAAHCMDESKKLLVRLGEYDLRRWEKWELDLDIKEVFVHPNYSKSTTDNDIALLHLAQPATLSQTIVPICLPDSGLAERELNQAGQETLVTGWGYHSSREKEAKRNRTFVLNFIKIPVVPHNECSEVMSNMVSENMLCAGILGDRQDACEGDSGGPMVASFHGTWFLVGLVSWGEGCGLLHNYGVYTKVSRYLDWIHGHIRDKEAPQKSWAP

Oryctolagus cuniculus [4] = assay: In vivo plasma concentration required to inhibit thrombosis formation in rabbit; assay type: functional, organism-based
Plasminogen = Plasminogen (Homo sapiens, UniProt P00747); assay: Inhibitory activity against Plasmin
Chain of Plasminogen (P00747 97-580 limits assumed): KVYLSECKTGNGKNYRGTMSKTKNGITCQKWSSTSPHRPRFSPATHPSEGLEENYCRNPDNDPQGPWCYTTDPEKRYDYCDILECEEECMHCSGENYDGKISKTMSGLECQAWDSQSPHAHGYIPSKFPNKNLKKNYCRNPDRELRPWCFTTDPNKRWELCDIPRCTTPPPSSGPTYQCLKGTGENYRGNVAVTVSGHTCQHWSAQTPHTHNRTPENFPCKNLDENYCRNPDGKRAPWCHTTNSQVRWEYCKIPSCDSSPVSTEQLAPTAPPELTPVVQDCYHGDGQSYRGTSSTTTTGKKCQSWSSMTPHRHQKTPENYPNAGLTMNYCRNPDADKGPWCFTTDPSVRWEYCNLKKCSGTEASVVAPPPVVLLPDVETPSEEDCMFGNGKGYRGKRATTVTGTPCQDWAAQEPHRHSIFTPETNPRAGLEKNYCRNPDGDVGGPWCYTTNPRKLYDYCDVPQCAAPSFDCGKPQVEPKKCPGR
Chain of Plasminogen (P00747 581-810 limits assumed): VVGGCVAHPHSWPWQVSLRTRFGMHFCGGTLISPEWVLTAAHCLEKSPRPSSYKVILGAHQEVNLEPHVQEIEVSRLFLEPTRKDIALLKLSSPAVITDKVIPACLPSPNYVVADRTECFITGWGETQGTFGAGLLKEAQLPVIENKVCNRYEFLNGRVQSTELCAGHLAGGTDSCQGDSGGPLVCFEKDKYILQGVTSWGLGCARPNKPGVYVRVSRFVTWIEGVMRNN

[5] = In vitro anticoagulant activity was measured by prothrombin time (PT) assay; assay type: functional
[6] = In vitro anticoagulant activity was measured by plasma based on thrombin generation (TG) assay; assay type: functional
[7] = biological target: Tissue-type plasminogen activator (Homo sapiens, UniProt P00750); assay: Inhibitory activity against tissue plasminogen activator (tissue plasminogen activator)
Chain of Tissue-type plasminogen activator (P00750 whole entry): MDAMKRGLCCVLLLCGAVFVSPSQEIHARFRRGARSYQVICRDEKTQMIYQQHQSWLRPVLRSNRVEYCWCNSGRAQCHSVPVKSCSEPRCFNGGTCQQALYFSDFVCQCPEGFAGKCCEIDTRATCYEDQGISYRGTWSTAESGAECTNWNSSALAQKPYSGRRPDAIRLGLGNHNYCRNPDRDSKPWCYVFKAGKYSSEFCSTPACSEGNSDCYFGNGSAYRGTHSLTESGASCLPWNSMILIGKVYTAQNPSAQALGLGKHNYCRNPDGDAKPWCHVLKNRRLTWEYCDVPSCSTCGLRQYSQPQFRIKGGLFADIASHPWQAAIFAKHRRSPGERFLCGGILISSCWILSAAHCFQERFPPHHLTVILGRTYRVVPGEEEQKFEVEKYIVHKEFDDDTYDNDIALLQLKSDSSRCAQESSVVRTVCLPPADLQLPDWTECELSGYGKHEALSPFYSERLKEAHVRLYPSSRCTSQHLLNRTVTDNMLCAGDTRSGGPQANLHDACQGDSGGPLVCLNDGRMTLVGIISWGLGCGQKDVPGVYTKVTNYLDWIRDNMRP

Serine protease 1 = Serine protease 1 (Homo sapiens, UniProt P07477); assay: Inhibitory activity against Trypsin
Chain of Serine protease 1 (P07477 whole entry): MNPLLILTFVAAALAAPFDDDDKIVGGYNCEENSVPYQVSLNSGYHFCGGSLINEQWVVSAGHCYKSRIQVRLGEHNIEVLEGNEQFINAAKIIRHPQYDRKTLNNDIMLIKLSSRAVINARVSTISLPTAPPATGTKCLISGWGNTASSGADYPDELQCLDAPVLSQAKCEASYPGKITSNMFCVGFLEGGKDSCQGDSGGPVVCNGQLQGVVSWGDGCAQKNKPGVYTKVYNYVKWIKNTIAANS

[8] = Inhibitory activity against Kallikrein
[9] = In vitro anticoagulant activity was measured by activated partial thromboplastin time (APTT) assay; assay type: functional
Oryctolagus cuniculus [10] = assay: In vivo inhibition thrombosis formation in rabbit; assay type: functional
Coagulation factor X [11] = biological target: T1, Coagulation factor X; assay: In vitro inhibitory activity against factor Xa
Oryctolagus cuniculus [12] = species: Oryctolagus cuniculus; assay: Plasma concentration required to inhibit thrombosis formation in rabbit; assay type: functional, organism-based
Oryctolagus cuniculus [13] = species: Oryctolagus cuniculus; assay: Inhibition thrombosis formation in rabbit; assay type: functional
Coagulation factor X [14] = biological target: T1, Coagulation factor X; assay: as §1; remark: listed apart in the source
Coagulation factor X [15] = biological target: T1, Coagulation factor X; assay: In vitro binding affinity towards factor Xa; Not active
[16] = Half life period after intravenous administration in rat; assay type: ADME, organism-based; conditions: in vivo

N=C(N)NCCC[C@@H](NS(=O)(=O)Cc1ccccc1)C(=O)NCC(=O)N[C@H](CCCNC(=N)N)C(=O)c1nccs1
k on (Coagulation factor X [1]): 6.5e+06 M⁻¹ s⁻¹
half-life [2]: 24 min
IC50 (Prothrombin): 10000 nM
IC50 [3]: 6000 nM
Plasma concentration (Oryctolagus cuniculus [4]): 0.07 µM
IC50 (Plasminogen): 309 nM
2x PT [5]: 6.8 µM
2x TG [6]: 0.18 µM
IC50 [7]: 329 nM
IC50 (Serine protease 1): 0.8 nM
IC50 [8]: 27 nM
2x APTT [9]: 0.5 µM
Inhibition (Oryctolagus cuniculus [10]): 100%

N=C(N)NCCC[C@@H](NC(=O)CN1CCN(Cc2ccccc2)CC1=O)C(=O)c1nccs1
IC50 (Coagulation factor X [11]): 771 nM
IC50 (Prothrombin): 14000 nM

N=C(N)NCCC[C@@H](NC(=O)CN1CCN(C(=O)Cc2ccccc2)CC1=O)C(=O)c1nccs1
IC50 (Coagulation factor X [11]): 21 nM
IC50 (Prothrombin): 2000 nM

N=C(N)NCCC[C@@H](NC(=O)CN1CCN(S(=O)(=O)Cc2ccccc2)CC1)C(=O)c1nccs1
IC50 (Coagulation factor X [11]): 24000 nM
IC50 (Prothrombin): > 500000 nM

N=C(N)NCCCC(NC(=O)CN1CCN(S(=O)(=O)c2ccc(NO)cc2)CC1=O)C(=O)c1nccs1 (centres undefined)
IC50 (Coagulation factor X [11]): 10 nM
IC50 (Prothrombin): 7000 nM

N=C(N)NCCC[C@@H](NC(=O)CN1CCN(S(=O)(=O)Cc2ccccc2)CCC1=O)C(=O)c1nccs1
IC50 (Coagulation factor X [11]): 5 nM
IC50 (Prothrombin): 2000 nM

N=C(N)NCCCC(NC(=O)CN1CCN(S(=O)(=O)c2ccc(C(=O)O)cc2)CC1=O)C(=O)c1nccs1 (centres undefined)
IC50 (Coagulation factor X [11]): 510 nM
IC50 (Prothrombin): 17000 nM

N=C(N)NCCC[C@@H](NC(=O)CN1CCN(S(=O)(=O)c2ccccc2)CC1=O)C(=O)c1nccs1
IC50 (Coagulation factor X [11]): 8 nM
IC50 (Prothrombin): 417 nM

N=C(N)NCCCC(NC(=O)CN1CCN(S(=O)(=O)c2ccc([N+](=O)[O-])cc2)CC1=O)C(=O)c1nccs1 (centres undefined)
IC50 (Coagulation factor X [11]): 6 nM
IC50 (Prothrombin): 3000 nM

N=C(N)NCCCC(NC(=O)CN1CCN(S(=O)(=O)c2ccc3c(Cl)cccc3c2)CC1=O)C(=O)c1nccs1 (centres undefined)
IC50 (Coagulation factor X [11]): 0.79 nM
Plasma concentration (Oryctolagus cuniculus [12]): 0.2 µM
IC50 (Prothrombin): 2000 nM
IC50 [3]: 170000 nM
Inhibition (Oryctolagus cuniculus [13]): 0%
IC50 (Plasminogen): 1880 nM
2x PT [5]: 12.5 µM
Ki (Coagulation factor X [14]): 1.3 nM
2x TG [6]: inactive
IC50 [7]: 740 nM
IC50 (Serine protease 1): 20.5 nM
k_off (Coagulation factor X [15]): inactive
k_on (Coagulation factor X [15]): inactive
IC50 [8]: 34 nM
2x APTT [9]: 12.5 µM
half-life [16]: 51 min

N=C(N)NCCCC(NC(=O)CN1CCN(S(=O)(=O)c2cccc3cnccc23)CC1=O)C(=O)c1nccs1 (centres undefined)
IC50 (Coagulation factor X [11]): 1 nM
IC50 (Prothrombin): 267 nM

CC(=O)Nc1ccc(S(=O)(=O)N2CCN(CC(=O)NC(CCCNC(=N)N)C(=O)c3nccs3)C(=O)C2)cc1 (centres undefined)
IC50 (Coagulation factor X [11]): 116 nM
IC50 (Prothrombin): 5000 nM

N=C(N)NCCCC(NC(=O)CN1CCN(S(=O)(=O)c2cccc3nonc23)CC1=O)C(=O)c1nccs1 (centres undefined)
IC50 (Coagulation factor X [11]): 2 nM
IC50 (Prothrombin): 719 nM

N=C(N)NCCCC(NC(=O)CN1CCN(S(=O)(=O)c2ccc(Cl)c(Cl)c2)CC1=O)C(=O)c1nccs1 (centres undefined)
IC50 (Coagulation factor X [11]): 1 nM
IC50 (Prothrombin): 1000 nM

N#Cc1c(Cl)cccc1Oc1ccc(S(=O)(=O)N2CCN(CC(=O)NC(CCCNC(=N)N)C(=O)c3nccs3)C(=O)C2)cc1 (centres undefined)
IC50 (Coagulation factor X [11]): 38 nM
IC50 (Prothrombin): 4000 nM

Cc1c(S(=O)(=O)N2CCN(CC(=O)NC(CCCNC(=N)N)C(=O)c3nccs3)C(=O)C2)sc2ccc(Cl)cc12 (centres undefined)
IC50 (Coagulation factor X [11]): 0.51 nM
IC50 (Prothrombin): 751 nM
IC50 [3]: 169000 nM
IC50 (Plasminogen): 1300 nM
Ki (Coagulation factor X [14]): 0.17 nM
IC50 [7]: 9960 nM
IC50 (Serine protease 1): 20 nM
half-life [16]: 5 min

N=C(N)NCCC[C@@H](NC(=O)CN1CCN(S(=O)(=O)c2ccc(Cl)cc2)CC1=O)C(=O)c1nccs1
k off (Coagulation factor X [1]): 0.19 s⁻¹
k on (Coagulation factor X [1]): 3.4e+06 M⁻¹ s⁻¹
half-life [2]: 22 min
IC50 (Prothrombin): 1000 nM
IC50 [3]: > 180000 nM
Plasma concentration (Oryctolagus cuniculus [4]): 0.5 µM
IC50 (Plasminogen): 10700 nM
2x PT [5]: 11.2 µM
2x TG [6]: 0.52 µM
IC50 [7]: 1880 nM
IC50 (Serine protease 1): 10.8 nM
IC50 [8]: 406 nM
2x APTT [9]: 4.2 µM
Inhibition (Oryctolagus cuniculus [10]): 90%

Cc1nsc(C)c1S(=O)(=O)N1CCN(CC(=O)NC(CCCNC(=N)N)C(=O)c2nccs2)C(=O)C1 (centres undefined)
IC50 (Coagulation factor X [11]): 69 nM
IC50 (Prothrombin): 669 nM

N=C(N)NCCCC(NC(=O)CN1CCN(S(=O)(=O)CCc2cccc3ccccc23)CC1=O)C(=O)c1nccs1 (centres undefined)
IC50 (Coagulation factor X [11]): 3 nM
IC50 (Prothrombin): 375 nM

N=C(N)NCCC[C@@H](NC(=O)CNC(=O)[C@H](Cc1c[nH]c2ccccc12)NS(=O)(=O)Cc1ccccc1)C(=O)c1nccs1
IC50 (Coagulation factor X [11]): 2 nM
IC50 (Prothrombin): 870 nM

N=C(N)NCCCC(NC(=O)CN1CCN(S(=O)(=O)/C=C/c2ccccc2)CC1=O)C(=O)c1nccs1 (centres undefined)
IC50 (Coagulation factor X [11]): 13 nM
IC50 (Prothrombin): 7000 nM

CS(=O)(=O)c1ccc(S(=O)(=O)N2CCN(CC(=O)NC(CCCN=C(N)N)C(=O)c3nccs3)C(=O)C2)cc1 (centres undefined)
IC50 (Coagulation factor X [11]): 85 nM
IC50 (Prothrombin): 4000 nM

N=C(N)NCCCC(NC(=O)CN1CCN(S(=O)(=O)c2cccc3c(Cl)cccc23)CC1=O)C(=O)c1nccs1 (centres undefined)
IC50 (Coagulation factor X [11]): 0.62 nM
IC50 (Prothrombin): 185 nM
